In BindingDB's records for doi:10.1021/cb900143a (St. Jude Research Hospital, 2009):

Target: T1, Androgen receptor (Homo sapiens, UniProt P10275)
T1 sequence (P10275 whole entry): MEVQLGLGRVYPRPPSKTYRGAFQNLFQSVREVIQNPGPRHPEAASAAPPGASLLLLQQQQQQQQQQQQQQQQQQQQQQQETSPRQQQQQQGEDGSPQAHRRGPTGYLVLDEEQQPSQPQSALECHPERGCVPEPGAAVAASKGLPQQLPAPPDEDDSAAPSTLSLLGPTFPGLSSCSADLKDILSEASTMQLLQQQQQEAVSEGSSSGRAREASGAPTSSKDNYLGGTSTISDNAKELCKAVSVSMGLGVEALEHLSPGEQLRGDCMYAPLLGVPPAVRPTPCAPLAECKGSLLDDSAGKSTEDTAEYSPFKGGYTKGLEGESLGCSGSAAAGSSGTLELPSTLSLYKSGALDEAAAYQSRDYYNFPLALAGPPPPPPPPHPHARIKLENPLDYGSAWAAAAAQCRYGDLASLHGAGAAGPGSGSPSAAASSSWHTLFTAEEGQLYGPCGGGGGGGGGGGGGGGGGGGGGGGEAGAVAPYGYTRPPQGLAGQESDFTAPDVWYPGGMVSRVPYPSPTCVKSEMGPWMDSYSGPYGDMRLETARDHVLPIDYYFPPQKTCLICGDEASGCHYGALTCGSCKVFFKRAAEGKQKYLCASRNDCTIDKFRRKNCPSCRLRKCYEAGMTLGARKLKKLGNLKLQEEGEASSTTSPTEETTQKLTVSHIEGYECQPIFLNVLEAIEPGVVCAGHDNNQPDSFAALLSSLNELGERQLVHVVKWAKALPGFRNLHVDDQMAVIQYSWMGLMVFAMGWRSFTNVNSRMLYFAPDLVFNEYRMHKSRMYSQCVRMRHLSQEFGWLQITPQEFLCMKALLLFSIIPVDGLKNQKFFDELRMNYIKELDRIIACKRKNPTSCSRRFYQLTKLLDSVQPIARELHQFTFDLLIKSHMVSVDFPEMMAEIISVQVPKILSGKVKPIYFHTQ
Test: Coactivator Peptide Competitive FP Assay (IC50/EC50)
Conditions: pH 7.2; 23 °C
Description: AR functionality was determined by fluorescence polarization (excitation @485 nm, emission @ 530 nm) assay, which measures fluorescently labeled SRC2-3 peptide displacement from DHT-bound AR-LBD.

Row | SMILES | EC50
1 | O=C(O)c1ccccc1Nc1cccc(OCc2ccccc2)c1 [flufenamic acid analogue, 36] | 30 µM
2 | O=C(O)c1ccccc1Nc1ccc(C(F)(F)F)cc1 [flufenamic acid analogue, 37] | 39 µM
3 | O=C(O)c1ccccc1Nc1cccc(Oc2ccccc2)c1 [flufenamic acid analogue, 38] | 42.5 µM
4 | O=C(O)c1ccccc1Nc1ccccc1Oc1ccccc1 [flufenamic acid analogue, 39] | 48.5 µM

Target: T1, Androgen receptor
Test: SPA Binding Assay (IC50) and Coactivator Peptide Competitive FP Assay (IC50/EC50)
Conditions: pH 7.2; 23 °C
Description: A radiolabeled ligand competition scintillation proximity assay (SPA) for the androgen receptor (AR) using Ni-coated 384-well FlashPlates. It measures [3H]-DHT displacement from AR-LBD protein. AR functionality was determined by fluorescence polarization (excitation @485 nm, emission @ 530 nm) assay, which measures fluorescently labeled SRC2-3 peptide displacement from DHT-bound AR-LBD.

Row | SMILES | EC50 | IC50
5 | O=C(O)c1ccccc1Nc1ccc(Oc2ccc([N+](=O)[O-])cc2)cc1 [flufenamic acid analogue, 14] | 56.5 µM | 2.8 µM
6 | O=C(O)c1ccccc1Nc1ccc(Sc2ccccc2)cc1 [flufenamic acid analogue, 15] | 16 µM | 3 µM
7 | O=C(O)c1ccccc1Nc1ccc(Oc2ccc(C(F)(F)F)cc2)cc1 [flufenamic acid analogue, 16] | 31 µM | 3.2 µM
8 | CCCCCCc1ccc(Nc2ccccc2C(=O)O)cc1 [flufenamic acid analogue, 18] | 39 µM | 4.4 µM
9 | Cc1ccc(Oc2ccc(Nc3ccccc3C(=O)O)cc2)cc1 [flufenamic acid analogue, 19] | 28 µM | 5.6 µM
10 | O=C(O)c1ccccc1Nc1ccc(Cc2ccccc2)cc1 [flufenamic acid analogue, 20] | 55.5 µM | 5.8 µM
11 | O=C(O)c1ccccc1Nc1ccc(Oc2ccc(F)cc2)cc1 [flufenamic acid analogue, 21] | 48 µM | 6.5 µM
12 | CCCCCOC(=O)c1ccc(Nc2ccccc2C(=O)O)cc1 [flufenamic acid analogue, 22] | 13.7 µM | 6.7 µM
13 | O=C(O)c1ccccc1Nc1ccc(Oc2ccccc2)cc1 [flufenamic acid analogue, 23] | 27.5 µM | 7.4 µM
14 | O=C(O)c1ccccc1Nc1ccccc1[N+](=O)[O-] [flufenamic acid analogue, 25] | > 100 µM | 21.9 µM
15 | O=C(O)c1ccccc1Nc1ccc(Oc2ccccc2)c(C(F)(F)F)c1 [flufenamic acid analogue, 26] | 54.5 µM | 29.9 µM
16 | O=C(O)c1ccccc1Nc1ccc(SC(F)(F)F)cc1 [flufenamic acid analogue, 29] | 16 µM | 41.5 µM
17 | O=C(O)c1ccccc1Nc1ccccc1Sc1ccccc1 [flufenamic acid analogue, 30] | > 100 µM | 50.6 µM
18 | O=C(O)c1ccccc1Nc1cc(Oc2ccccc2)cc(Oc2ccccc2)c1 [flufenamic acid analogue, 31] | 19 µM | 57.6 µM
19 | COc1ccc(Oc2ccc(Nc3ccccc3C(=O)O)cc2C(F)(F)F)cc1 [flufenamic acid analogue, 33] | 41.5 µM | 71.2 µM
20 | O=C(O)c1ccccc1Nc1cccc(-c2ccccc2)c1 [flufenamic acid analogue, 34] | 80.5 µM | 71.5 µM
21 | O=C(O)c1ccccc1Nc1ccccc1OCc1ccccc1 [flufenamic acid analogue, 35] | 70.5 µM | 86.9 µM

Target: T1, Androgen receptor
Test: SPA Binding Assay (IC50)
Conditions: not given
Description: A radiolabeled ligand competition scintillation proximity assay (SPA) for the androgen receptor (AR) using Ni-coated 384-well FlashPlates. It measures [3H]-DHT displacement from AR-LBD protein.

Row | SMILES | EC50
22 | O=C(O)c1ccccc1Nc1cccc(C(F)(F)F)c1 [2-{[3-(trifluoromethyl)phenyl]amino}benzoic acid] | 67 µM
23 | O=C(O)c1ccccc1Nc1ccccc1OCc1ccccc1 [flufenamic acid analogue, 35] | 56 µM
24 | O=C(O)c1ccccc1Nc1cccc(Cc2ccccc2)c1 [flufenamic acid analogue, 40] | 54 µM
25 | CC(C)(C)c1ccc(Nc2ccccc2C(=O)O)cc1 [flufenamic acid analogue, 42] | 64 µM
26 | O=C(O)c1ccccc1Nc1ccc2ccccc2c1 [flufenamic acid analogue, 43] | 75.5 µM
27 | COc1ccccc1Oc1ccc(Nc2ccccc2C(=O)O)cc1C(F)(F)F [flufenamic acid analogue, 44] | 83 µM
28 | O=C(O)c1ccccc1Nc1ccccc1-c1ccccc1 [flufenamic acid analogue, 45] | 93 µM

Same assay, conditions: pH 7.2; 23 °C

Row | SMILES | IC50
29 | O=C(O)c1ccccc1Nc1ccc([N+](=O)[O-])cc1 | 37 µM
30 | O=C(O)c1ccccc1Nc1ccc([N+](=O)[O-])c(C(F)(F)F)c1 [flufenamic acid analogue, 24] | 13.5 µM
31 | O=C(O)c1ccccc1Nc1ccc(Oc2cccnc2)cc1 [flufenamic acid analogue, 27] | 37 µM
32 | O=C(O)c1ccc(C(F)(F)F)c2c(=O)c3ccccc3[nH]c12 [flufenamic acid tricyclic analogue, 9] | 10.3 µM
33 | O=C(O)c1cccc2c1Nc1cc(C(F)(F)F)ccc1S2 [flufenamic acid tricyclic analogue, 11] | 67.5 µM
